The results in this text go back to PubChem BioAssay (NCI).

Common to all, as to test: growth of human tumour cells (NCI), 48 h
Experiment [1] deals with HCT-15 colon.
The subject of experiment [2] is HL-60(TB) leukemia.
The test system of experiment [3] is HT29 colon.
For experiment [4], the system named is IGROV1 ovarian.
For experiment [5], the system named is K-562 leukemia.
Experiment [6] concerns LOX IMVI melanoma.
Experiment [7] has as its system MCF7 breast.
Experiment [8] deals with MOLT-4 leukemia.
Experiment [9] relates to NCI/ADR-RES ovarian.
The test system of experiment [10] is OVCAR-4 ovarian.
Experiment [11] relates to OVCAR-8 ovarian.
The subject of experiment [12] is RPMI-8226 leukemia.
Experiment [13] relates to RXF 393 renal.
For experiment [14], the system named is SF-539 CNS.
Experiment [15] relates to SK-MEL-2 melanoma.
In experiment [16] the test system is SK-MEL-28 melanoma.
Experiment [17] has as its system SK-MEL-5 melanoma.
Experiment [18] relates to SNB-75 CNS.
Experiment [19] relates to HOP-92 NSCLC.
For experiment [20], the system named is SW-620 colon.

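Grown in 96-well plates, cells were treated for 48 hours with each compound at five concentrations. Insufficient inhibition: endpoint recorded as highest concentration tested. The concentration for full growth arrest is given as TGI.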 A value given as a limit tells only on which side of the number the result lay.

Regarding `COc1ccnc2c1C(=O)c1nc3ccccc3c3ccnc-2c13`, the TGI in experiment [1] worked out at 0.145 µM; in experiment [2], 0.29 µM; in experiment [3], 0.89 µM; in [4] it was 0.704 µM; in experiment [5], 0.653 µM; in [6] it was 5.47 µM. For the same molecule, the TGI is 0.298 µM in [7]; 7.32 µM in experiment [8]; 0.147 µM in experiment [9]; 2.65 µM in experiment [10]; 0.224 µM in experiment [11]; 0.526 µM in experiment [12]. For the same molecule, the TGI in [13] was determined as 0.86 µM; in [14], 33.7 µM; in experiment [15], 4.11 µM; in [16] it was 7.37 µM; in experiment [17] it was 0.437 µM; in experiment [18], 0.589 µM.

With `CCOC(=O)CC1CCN(C(=O)c2ccccc2)C2Cc3c([nH]c4ccccc34)C12C[N+](=O)[O-]` (centres undefined), the TGI in experiment [1], in experiment [2], in experiment [19], in [3], in experiment [4] and in experiment [5] was more than 100 µM in each case. Besides, the TGI in experiment [6], in [7], in experiment [8], in [9], in [10] and in experiment [11] was more than 100 µM each time. The TGI in experiment [13], in [14], in [15], in [16], in [17] and in [18] was more than 100 µM throughout. The same molecule came in with a TGI in [20] of more than 100 µM.

With `O=c1c(-c2ccccc2)c(SCCCN2CCN(c3cccc(Cl)c3)CC2)n(-c2ccccc2)c(=S)n1-c1ccccc1`, the TGI in experiment [1], in experiment [2], in experiment [19], in [3], in experiment [4] and in [5] was more than 100 µM each time. The TGI in experiment [6], in experiment [7], in [8], in experiment [9], in experiment [10] and in experiment [11] was more than 100 µM throughout. In addition, the TGI in experiment [12], in experiment [13], in experiment [14], in experiment [15], in [16] and in experiment [17] was more than 100 µM throughout. In addition, the TGI in experiment [18] and in experiment [20] was more than 100 µM throughout.

For `CCOC(=O)c1csc(NC(=O)C(C)N2CCCCC2)n1` (centres undefined), the TGI in experiment [1], in experiment [2], in experiment [19], in [3], in experiment [4] and in experiment [5] was more than 100 µM each time. The TGI in [6], in [7], in experiment [8], in experiment [9], in experiment [10] and in experiment [11] was more than 100 µM each time. The TGI in experiment [12], in [13], in experiment [14], in experiment [15], in experiment [16] and in [17] was more than 100 µM in each case. Moreover, the TGI in experiment [18] and in experiment [20] was more than 100 µM throughout.

`COC(=O)C1OC(Oc2cc(O)c3c(=O)cc(-c4ccc(O)cc4)oc3c2)C(O)C(O)C1O` (centres undefined): the TGI in experiment [1], in [2], in experiment [19], in [3], in experiment [4] and in experiment [5] was more than 100 µM throughout. The TGI in [6], in experiment [7], in experiment [8], in [9], in experiment [10] and in experiment [11] was more than 100 µM in each case. Also, the TGI in experiment [12], in experiment [13], in experiment [14], in experiment [15], in [16] and in experiment [17] was more than 100 µM each time. Further, the TGI in experiment [18] and in experiment [20] was more than 100 µM each time.

Take `CCCCN1C=CN2c3nc4cc(C)c(C)cc4n3C(C(=O)OC)=C(C(=O)OC)C12` (centres undefined): the TGI in experiment [1], in experiment [2], in [19], in [3], in experiment [4] and in [5] was more than 100 µM in each case. The TGI in experiment [6], in experiment [8], in experiment [10], in [11], in experiment [12] and in experiment [13] was more than 100 µM each time. The TGI in experiment [14], in experiment [15], in experiment [17], in experiment [18] and in experiment [20] was more than 100 µM each time.

With `CN(C)C(=O)OCOC(=O)N(C)C`, the TGI in experiment [1] was more than 100 µM; in [2] it was more than 31.6 µM; in experiment [19] it was more than 100 µM; in [3] it was more than 100 µM; in [4], more than 100 µM; in experiment [5], more than 100 µM. Moreover, the TGI in [6], in experiment [7], in [8], in experiment [9], in experiment [10] and in experiment [11] was more than 100 µM each time. The TGI in experiment [12], in [13], in [14], in experiment [15], in [16] and in [17] was more than 100 µM throughout. Further, the TGI in experiment [18] and in [20] was more than 100 µM each time.
